# Results reported in ChEMBL document CHEMBL1140446, “Designed multiple ligands. An emerging drug discovery paradigm” (J Med Chem, 2005).
# Key:
# [1] = molecular target: Platelet-activating factor receptor (Homo sapiens, UniProt P25105)
# Description: Inhibitory concentration against platelet activating factor receptor
# [2] = molecular target: Sodium-dependent dopamine transporter (Homo sapiens, UniProt Q01959)
# Description: Inhibitory concentration against dopamine transporter
# [3] = molecular target: T1, Sodium-dependent serotonin transporter (Homo sapiens, UniProt P31645)
# Description: Inhibitory concentration against serotonin transporter
# [4] = molecular target: T2, D(2) dopamine receptor (Homo sapiens, UniProt P14416)
# T2 sequence (P14416 whole entry): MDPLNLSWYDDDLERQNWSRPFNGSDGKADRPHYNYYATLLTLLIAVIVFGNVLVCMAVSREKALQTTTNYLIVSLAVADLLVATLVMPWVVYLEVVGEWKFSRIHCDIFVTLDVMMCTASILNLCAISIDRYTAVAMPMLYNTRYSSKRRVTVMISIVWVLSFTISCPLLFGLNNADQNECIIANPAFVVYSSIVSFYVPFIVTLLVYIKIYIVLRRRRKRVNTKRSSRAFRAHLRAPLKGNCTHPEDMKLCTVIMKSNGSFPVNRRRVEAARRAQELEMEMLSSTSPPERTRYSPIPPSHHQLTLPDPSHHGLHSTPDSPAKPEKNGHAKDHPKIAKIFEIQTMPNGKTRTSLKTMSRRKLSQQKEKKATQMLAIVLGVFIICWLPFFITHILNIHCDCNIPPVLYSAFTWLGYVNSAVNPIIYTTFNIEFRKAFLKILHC
# Description: Inhibition constant against dopamine receptor D2
# [5] = molecular target: T3, Adrenergic receptor alpha-1 (Homo sapiens, UniProt P35348+P25100+P35368); assay: Inhibition constant against alpha adrenergic receptor; type: protein assay
# T3 sequence (P35348 whole entry): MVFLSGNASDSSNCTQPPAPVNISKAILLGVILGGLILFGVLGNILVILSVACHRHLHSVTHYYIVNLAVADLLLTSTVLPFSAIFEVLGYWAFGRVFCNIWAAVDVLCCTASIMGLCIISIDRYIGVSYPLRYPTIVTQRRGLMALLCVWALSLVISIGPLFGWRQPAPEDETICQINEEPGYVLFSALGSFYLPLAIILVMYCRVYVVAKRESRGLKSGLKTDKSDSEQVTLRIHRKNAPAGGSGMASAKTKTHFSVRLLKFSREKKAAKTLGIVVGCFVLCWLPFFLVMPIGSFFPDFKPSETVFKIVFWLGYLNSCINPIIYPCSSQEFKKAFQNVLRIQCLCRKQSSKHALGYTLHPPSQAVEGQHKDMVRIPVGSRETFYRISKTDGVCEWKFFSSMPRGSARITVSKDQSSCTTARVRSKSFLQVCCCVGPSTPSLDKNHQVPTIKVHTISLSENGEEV
# T3 sequence (P25100 whole entry): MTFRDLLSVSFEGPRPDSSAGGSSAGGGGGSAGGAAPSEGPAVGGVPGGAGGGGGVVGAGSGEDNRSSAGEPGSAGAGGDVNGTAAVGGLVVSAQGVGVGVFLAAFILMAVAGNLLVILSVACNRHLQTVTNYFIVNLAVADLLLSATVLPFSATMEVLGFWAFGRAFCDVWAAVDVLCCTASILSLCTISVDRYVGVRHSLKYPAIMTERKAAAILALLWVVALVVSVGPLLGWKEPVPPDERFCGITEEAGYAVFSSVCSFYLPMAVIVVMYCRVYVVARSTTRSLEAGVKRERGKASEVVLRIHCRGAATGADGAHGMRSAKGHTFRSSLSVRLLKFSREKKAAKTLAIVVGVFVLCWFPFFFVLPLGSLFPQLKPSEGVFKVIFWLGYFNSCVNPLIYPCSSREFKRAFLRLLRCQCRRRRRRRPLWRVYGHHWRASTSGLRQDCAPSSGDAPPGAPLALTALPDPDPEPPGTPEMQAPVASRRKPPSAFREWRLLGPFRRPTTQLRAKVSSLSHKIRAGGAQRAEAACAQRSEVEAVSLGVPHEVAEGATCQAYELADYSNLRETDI
# T3 sequence (P35368 whole entry): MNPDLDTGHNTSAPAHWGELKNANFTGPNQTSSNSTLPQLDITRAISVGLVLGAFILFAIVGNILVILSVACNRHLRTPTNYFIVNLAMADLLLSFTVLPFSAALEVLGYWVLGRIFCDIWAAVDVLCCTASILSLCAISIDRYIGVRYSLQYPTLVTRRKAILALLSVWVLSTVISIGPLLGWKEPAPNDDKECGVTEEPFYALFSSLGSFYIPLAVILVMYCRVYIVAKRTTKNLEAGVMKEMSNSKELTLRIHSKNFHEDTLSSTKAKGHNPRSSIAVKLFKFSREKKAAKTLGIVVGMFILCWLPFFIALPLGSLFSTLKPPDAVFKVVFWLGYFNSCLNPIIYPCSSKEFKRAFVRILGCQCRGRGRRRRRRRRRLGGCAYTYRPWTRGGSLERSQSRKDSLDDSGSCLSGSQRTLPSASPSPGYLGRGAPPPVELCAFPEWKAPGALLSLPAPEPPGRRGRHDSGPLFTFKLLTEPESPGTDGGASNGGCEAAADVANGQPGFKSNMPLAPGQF
# [6] = molecular target: Adrenergic receptor alpha-1 (Homo sapiens) (UniProt P35348+P25100+P35368); assay: Inhibition constant against alpha adrenergic receptor at 0.1 uM concentration; type: protein assay
# [7] = molecular target: T1, Sodium-dependent serotonin transporter; remark: listed apart in the source
# Description: Inhibition constant against serotonin transporter
# [8] = molecular target: T2, D(2) dopamine receptor; remark: listed apart in the source
# Description: Inhibitory concentration against dopamine receptor D2
# [9] = molecular target: 5-hydroxytryptamine receptor 2A (Homo sapiens, UniProt P28223)
# Sequence of 5-hydroxytryptamine receptor 2A (Homo sapiens, UniProt P28223) (P28223 whole entry): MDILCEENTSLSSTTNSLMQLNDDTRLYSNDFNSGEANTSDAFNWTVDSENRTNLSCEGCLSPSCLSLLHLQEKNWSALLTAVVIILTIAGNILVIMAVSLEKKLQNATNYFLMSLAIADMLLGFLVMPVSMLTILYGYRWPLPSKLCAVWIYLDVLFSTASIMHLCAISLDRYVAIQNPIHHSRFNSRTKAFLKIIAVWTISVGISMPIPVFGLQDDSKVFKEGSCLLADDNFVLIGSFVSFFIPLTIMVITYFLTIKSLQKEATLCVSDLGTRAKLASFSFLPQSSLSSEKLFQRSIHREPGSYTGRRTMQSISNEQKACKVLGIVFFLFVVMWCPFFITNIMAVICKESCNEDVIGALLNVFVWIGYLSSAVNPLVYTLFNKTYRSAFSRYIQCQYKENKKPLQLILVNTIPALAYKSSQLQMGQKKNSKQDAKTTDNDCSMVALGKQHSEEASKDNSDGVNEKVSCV
# Description: Inhibitory concentration against 5-hydroxytryptamine 2 receptor
# [10] = molecular target: 5-hydroxytryptamine receptor 2A (Rattus norvegicus, UniProt P14842); assay: Inhibition constant against 5-Hydroxytryptamine 2 receptor in olfactory bulbectomized rat
# [11] = molecular target: T4, 5-hydroxytryptamine receptor 1A (Homo sapiens, UniProt P08908)
# T4 sequence (P08908 whole entry): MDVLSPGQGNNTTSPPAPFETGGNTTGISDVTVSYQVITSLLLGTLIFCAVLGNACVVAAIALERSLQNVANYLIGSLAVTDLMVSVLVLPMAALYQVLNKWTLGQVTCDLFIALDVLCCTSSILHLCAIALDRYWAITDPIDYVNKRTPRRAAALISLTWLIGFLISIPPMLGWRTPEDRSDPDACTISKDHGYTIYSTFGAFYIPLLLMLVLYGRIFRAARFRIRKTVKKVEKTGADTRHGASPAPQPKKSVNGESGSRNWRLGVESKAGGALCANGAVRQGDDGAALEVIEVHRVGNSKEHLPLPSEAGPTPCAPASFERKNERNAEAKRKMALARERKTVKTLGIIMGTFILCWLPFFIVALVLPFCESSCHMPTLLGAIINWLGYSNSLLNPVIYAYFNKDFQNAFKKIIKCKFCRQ
# Description: Inhibition constant against 5-hydroxytryptamine 1A receptor
# [12] = Oral bioavailability; type: ADME, organism-based; settings: eutheria, in vivo
# [13] = molecular target: T5, Histamine H1 receptor (Homo sapiens, UniProt P35367)
# T5 sequence (P35367 whole entry): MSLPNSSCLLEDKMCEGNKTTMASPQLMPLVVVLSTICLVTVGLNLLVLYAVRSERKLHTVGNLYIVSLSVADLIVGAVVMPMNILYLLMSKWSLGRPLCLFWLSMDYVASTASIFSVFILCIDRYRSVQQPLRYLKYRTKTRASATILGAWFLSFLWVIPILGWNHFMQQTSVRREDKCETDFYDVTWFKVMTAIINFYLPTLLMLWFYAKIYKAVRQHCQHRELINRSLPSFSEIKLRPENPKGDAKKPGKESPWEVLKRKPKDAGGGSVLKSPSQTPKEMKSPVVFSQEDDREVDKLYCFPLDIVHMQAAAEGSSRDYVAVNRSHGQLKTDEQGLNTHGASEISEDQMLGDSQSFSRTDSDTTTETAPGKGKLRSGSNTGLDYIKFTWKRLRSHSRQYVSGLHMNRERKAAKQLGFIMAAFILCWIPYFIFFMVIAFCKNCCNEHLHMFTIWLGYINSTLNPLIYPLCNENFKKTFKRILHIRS
# Description: Inhibitory concentration against histamine H1 receptor
# [14] = molecular target: Beta-2 adrenergic receptor (Homo sapiens, UniProt P07550); assay: Negative logarithm causing 50% receptor occupancy against beta-2 adrenergic receptor
# [15] = molecular target: T1, Sodium-dependent serotonin transporter; assay: Negative logarithm causing 50% receptor occupancy against serotonin transporter
# [16] = molecular target: T6, Substance-P receptor (Homo sapiens, UniProt P25103)
# T6 sequence (P25103 whole entry): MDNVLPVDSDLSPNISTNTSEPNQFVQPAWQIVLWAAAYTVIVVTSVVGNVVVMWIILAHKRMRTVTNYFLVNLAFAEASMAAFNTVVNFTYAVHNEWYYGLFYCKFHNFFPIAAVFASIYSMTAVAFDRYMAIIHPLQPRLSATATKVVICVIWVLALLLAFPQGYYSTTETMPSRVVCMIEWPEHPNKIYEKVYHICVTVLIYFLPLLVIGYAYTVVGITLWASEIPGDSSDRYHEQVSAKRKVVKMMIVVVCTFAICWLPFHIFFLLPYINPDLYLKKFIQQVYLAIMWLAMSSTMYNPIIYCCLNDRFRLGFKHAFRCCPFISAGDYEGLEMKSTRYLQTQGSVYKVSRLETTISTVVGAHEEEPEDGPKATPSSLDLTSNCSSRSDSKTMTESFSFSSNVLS
# Description: Binding affinity towards tachykinin receptor 1
# [17] = molecular target: T7, Substance-K receptor (Homo sapiens, UniProt P21452); assay: Binding affinity towards tachykinin receptor 2
# T7 sequence (P21452 whole entry): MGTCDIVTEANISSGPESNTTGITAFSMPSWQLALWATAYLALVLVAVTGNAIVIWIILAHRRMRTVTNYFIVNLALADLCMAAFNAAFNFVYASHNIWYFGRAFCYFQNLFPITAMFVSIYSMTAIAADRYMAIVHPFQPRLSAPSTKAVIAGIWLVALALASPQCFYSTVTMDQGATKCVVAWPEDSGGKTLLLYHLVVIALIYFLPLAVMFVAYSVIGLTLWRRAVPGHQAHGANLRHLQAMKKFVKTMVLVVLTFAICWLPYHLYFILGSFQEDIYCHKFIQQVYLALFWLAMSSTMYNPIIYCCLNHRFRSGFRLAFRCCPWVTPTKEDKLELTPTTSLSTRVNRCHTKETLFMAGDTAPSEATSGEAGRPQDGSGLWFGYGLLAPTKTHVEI
# [18] = molecular target: T4, 5-hydroxytryptamine receptor 1A; assay: Inhibitory concentration against 5-hydroxytryptamine 1A receptor
# [19] = molecular target: T3, Adrenergic receptor alpha-1
# Description: Inhibitory concentration against alpha adrenergic receptor
# [20] = molecular target: Neprilysin (Homo sapiens, UniProt P08473)
# Description: Inhibitory concentration against neutral endopeptidase
# [21] = molecular target: Angiotensin-converting enzyme (Homo sapiens, UniProt P12821); assay: Inhibitory concentration against angiotensin I converting enzyme
# Sequence of Angiotensin-converting enzyme (P12821 whole entry): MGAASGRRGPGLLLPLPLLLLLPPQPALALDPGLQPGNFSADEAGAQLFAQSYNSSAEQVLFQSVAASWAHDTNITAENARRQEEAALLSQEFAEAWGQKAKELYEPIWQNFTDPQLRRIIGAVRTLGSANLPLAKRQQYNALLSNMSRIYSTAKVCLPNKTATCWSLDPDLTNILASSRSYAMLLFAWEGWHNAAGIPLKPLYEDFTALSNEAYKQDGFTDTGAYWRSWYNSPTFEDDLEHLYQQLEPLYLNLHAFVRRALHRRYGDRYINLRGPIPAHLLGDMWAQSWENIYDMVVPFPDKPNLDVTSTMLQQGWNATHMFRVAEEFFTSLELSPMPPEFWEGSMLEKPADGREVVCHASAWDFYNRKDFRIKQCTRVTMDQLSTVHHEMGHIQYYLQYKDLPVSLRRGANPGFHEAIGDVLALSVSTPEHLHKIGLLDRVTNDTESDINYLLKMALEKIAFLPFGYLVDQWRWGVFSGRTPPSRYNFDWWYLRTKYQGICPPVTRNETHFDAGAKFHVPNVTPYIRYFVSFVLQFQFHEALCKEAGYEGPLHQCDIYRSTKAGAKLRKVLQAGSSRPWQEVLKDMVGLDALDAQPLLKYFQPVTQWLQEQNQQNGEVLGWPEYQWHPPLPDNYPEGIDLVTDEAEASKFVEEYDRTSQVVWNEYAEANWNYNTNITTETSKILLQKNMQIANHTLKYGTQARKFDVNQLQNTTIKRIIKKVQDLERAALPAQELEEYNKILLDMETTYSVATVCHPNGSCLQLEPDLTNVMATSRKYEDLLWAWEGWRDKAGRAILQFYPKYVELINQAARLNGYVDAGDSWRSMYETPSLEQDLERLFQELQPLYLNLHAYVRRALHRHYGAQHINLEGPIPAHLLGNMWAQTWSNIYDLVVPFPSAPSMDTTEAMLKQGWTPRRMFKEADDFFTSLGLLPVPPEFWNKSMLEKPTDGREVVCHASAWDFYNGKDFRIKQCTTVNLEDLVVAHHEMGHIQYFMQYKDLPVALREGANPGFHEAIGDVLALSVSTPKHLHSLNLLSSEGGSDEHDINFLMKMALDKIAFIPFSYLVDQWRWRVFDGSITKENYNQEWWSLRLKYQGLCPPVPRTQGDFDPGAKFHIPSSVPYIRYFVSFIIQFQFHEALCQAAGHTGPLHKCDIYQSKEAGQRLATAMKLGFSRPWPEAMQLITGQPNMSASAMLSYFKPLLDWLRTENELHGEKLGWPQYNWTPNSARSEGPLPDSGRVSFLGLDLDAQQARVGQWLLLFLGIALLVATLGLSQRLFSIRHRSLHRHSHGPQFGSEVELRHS
# [22] = molecular target: T7, Substance-K receptor
# Description: Inhibitory concentration against tachykinin receptor 2
# [23] = molecular target: T6, Substance-P receptor; assay: Inhibitory concentration against tachykinin receptor 1
# [24] = molecular target: T6, Substance-P receptor; remark: listed apart in the source
# Description: Inhibitory concentration against neurokinin NK1 receptor
# [25] = molecular target: Tyrosine-protein kinase ABL1 (Homo sapiens, UniProt P00519); assay: Inhibitory concentration against v-Abl tyrosine kinase
# [26] = molecular target: T8, Gastrin/cholecystokinin type B receptor (Homo sapiens, UniProt P32239); assay: Inhibitory concentration against Cholecystokinin B receptor
# T8 sequence (P32239 whole entry): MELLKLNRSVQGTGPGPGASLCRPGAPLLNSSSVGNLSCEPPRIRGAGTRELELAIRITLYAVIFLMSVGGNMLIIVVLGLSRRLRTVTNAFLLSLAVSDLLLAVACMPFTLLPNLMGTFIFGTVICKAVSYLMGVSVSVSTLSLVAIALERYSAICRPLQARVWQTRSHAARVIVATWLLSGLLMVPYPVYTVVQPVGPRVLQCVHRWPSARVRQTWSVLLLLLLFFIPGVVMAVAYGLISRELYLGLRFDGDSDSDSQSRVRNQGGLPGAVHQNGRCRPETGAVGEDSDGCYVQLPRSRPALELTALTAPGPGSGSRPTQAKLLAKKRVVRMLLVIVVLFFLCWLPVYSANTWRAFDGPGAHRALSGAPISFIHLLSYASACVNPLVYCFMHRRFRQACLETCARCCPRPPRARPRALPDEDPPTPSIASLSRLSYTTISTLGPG
# [27] = molecular target: Histamine H2 receptor (Homo sapiens, UniProt P25021); assay: Negative logarithm of the drug concentration against H2 histamine receptor; settings: read-out: pA2 (converted)
# [28] = molecular target: T8, Gastrin/cholecystokinin type B receptor; assay: Inhibitory concentration against gastrin receptor
# [29] = molecular target: Cysteinyl leukotriene receptor 1 (Cavia porcellus, UniProt Q2NNR5); assay: Inhibitory concentration against LTD4-induced contraction of guinea pig ileum at 10 uM concentration; type: tissue-based
# Sequence of Cysteinyl leukotriene receptor 1 (Q2NNR5 whole entry): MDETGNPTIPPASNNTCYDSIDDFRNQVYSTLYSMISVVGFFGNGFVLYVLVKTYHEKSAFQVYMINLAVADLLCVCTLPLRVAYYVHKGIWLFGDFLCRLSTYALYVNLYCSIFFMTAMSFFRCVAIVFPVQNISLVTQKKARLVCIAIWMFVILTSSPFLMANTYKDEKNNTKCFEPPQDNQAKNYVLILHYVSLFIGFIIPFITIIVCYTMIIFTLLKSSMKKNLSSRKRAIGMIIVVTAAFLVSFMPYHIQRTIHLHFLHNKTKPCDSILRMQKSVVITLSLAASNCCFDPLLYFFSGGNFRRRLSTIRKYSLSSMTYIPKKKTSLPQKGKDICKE
# [30] = molecular target: T6, Substance-P receptor; assay: Negative logarithm causing 50% receptor occupancy against tachykinin receptor 1
# [31] = molecular target: Procathepsin L (Homo sapiens, UniProt P07711); assay: Inhibitory concentration against cathepsin L
# [32] = molecular target: Acetylcholinesterase (Homo sapiens, UniProt P22303)
# Description: Inhibitory concentration against acetylcholinesterase
# [33] = molecular target: 5-hydroxytryptamine receptor 1B (Homo sapiens, UniProt P28222)
# Description: Inhibition constant against 5-HT 1B receptor
# [34] = molecular target: 5-hydroxytryptamine receptor 1D (Homo sapiens, UniProt P28221); assay: Inhibition constant against 5-hydroxytryptamine 1D receptor
# [35] = molecular target: T5, Histamine H1 receptor; remark: listed apart in the source
# Description: Dissociation constant against histamine H1 receptor
# T1 sequence (P31645 whole entry): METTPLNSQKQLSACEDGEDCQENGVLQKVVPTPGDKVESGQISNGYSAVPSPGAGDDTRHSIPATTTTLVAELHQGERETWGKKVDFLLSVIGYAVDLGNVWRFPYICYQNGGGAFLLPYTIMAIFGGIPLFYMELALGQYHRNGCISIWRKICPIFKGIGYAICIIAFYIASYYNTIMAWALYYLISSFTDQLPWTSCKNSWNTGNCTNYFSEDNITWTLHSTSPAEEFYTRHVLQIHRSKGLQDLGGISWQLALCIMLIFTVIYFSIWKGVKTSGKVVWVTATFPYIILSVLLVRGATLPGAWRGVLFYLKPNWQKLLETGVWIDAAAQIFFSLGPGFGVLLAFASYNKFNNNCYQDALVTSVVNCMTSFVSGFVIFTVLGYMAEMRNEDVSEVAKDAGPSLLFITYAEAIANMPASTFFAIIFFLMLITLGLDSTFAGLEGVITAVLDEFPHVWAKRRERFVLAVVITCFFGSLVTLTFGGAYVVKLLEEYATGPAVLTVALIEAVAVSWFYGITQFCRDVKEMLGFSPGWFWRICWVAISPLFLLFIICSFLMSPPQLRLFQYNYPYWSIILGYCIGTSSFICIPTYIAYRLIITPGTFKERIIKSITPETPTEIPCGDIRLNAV
# Sequence of Platelet-activating factor receptor (P25105 whole entry): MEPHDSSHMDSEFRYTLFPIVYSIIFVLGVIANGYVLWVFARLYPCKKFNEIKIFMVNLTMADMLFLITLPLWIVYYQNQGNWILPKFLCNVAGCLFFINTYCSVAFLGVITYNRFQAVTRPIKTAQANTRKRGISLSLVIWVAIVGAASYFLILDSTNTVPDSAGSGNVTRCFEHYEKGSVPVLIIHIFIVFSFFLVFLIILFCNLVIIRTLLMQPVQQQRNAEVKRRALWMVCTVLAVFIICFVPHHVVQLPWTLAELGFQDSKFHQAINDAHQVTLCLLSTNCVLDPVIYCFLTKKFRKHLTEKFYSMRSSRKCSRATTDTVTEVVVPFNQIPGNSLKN
structure (smiles),measurement,setting,value
Cc1cncc(CN2CCC(=C3c4ccc(Cl)cc4CCc4cccnc43)CC2)c1 [RUPATADINE],IC50,[1],3700 nM
CN(C)C[C@@H]1C2CCC(CC2)[C@@H]1c1cccc(Cl)c1,IC50,[2],28 nM
same,IC50,[3],270 nM
NC(=O)c1ccc2c(c1)CCOC2CCN1CC=C(c2c[nH]c3cc(F)ccc23)CC1 (configuration not stated),Ki,[4],4.7 nM
same,Ki,[5],16 nM
same,IC50,[3],0.11 nM
Fc1cc2c(c(OCCNCCCc3c[nH]c4ccc(F)cc34)c1)OCCC2,inhibition,[6],79%
same,Ki,[7],0.5 nM
c1ccc2c(N3CCNCC3)cccc2c1,IC50,[8],> 1000 nM
same,IC50,[9],62 nM
COc1cccc2c1CCC[C@H]2CN(C)CCc1ccc2ccoc2c1,Ki,[10],144 nM
same,Ki,[11],2 nM
OC(CCc1ccccc1)CN1CCC2(CC1)OCc1c2ccc2ccccc12 (configuration not stated),bioavailability,[12],65%
same,Ki,[7],10 nM
CC(=O)N1CCC(=C2c3ccc(Cl)cc3CCc3cccnc32)CC1 [SCH-37370],IC50,[13],100 nM
same,IC50,[1],840 nM
Cc1ccc2c(OCCN3CCC(Cc4ccc5c(c4)NC(=O)CO5)CC3)cccc2n1,Log Ki,[14],< -6.3
same,Ki,[15],6.31 nM
CN(C(=O)c1cc(C(F)(F)F)cc(C(F)(F)F)c1)[C@@H](/C=C/C(=O)NCCN1CCCCC1)Cc1ccc(Cl)cc1,IC50,[16],10 nM
same,IC50,[17],49 nM
O=C1Cc2cc(CCN3CCN(c4cccc5ccccc45)CC3)ccc2N1,IC50,[18],5 nM
same,IC50,[8],44 nM
same,IC50,[19],45 nM
same,IC50,[9],20 nM
O=C(N[C@H]1Cc2ccccc2C2CCC[C@H](C(=O)O)N2C1=O)[C@H](S)Cc1ccccc1 (some centres not stated),IC50,[20],0.08 nM
same,IC50,[21],0.11 nM
NC(=O)C1(c2ccccc2)CCN(CC[C@@]2(c3ccc(Cl)c(Cl)c3)CCN(C(=O)c3ccccc3)C2)CC1,IC50,[22],2.25 nM
same,IC50,[23],161 nM
COc1ccc(C2(CCN3CCC(C(=O)c4nc5ccccc5n4Cc4ccc(F)cc4)CC3)CCN(C(=O)c3cc(OC)c(OC)c(OC)c3)C2)cc1OC (configuration not stated),IC50,[24],31 nM
O=C(Nc1cccc(Nc2nccc(-c3cccnc3)n2)c1)c1ccccc1,IC50,[25],400 nM
CN1C(=O)[C@H](NC(=O)Nc2ccc(CC(=O)NCCC(=O)NCCCOc3cccc(CN4CCCCC4)c3)cc2)N=C(c2ccccc2)c2ccccc21,IC50,[26],290 nM
same,Kb,[27],251 nM
same,IC50,[28],136 nM
CN1CCC(=C2c3ccccc3C=Cc3ccccc32)CC1 [CYPROHEPTADINE],IC50,[29],> 100000 nM
O=C(CCc1cc(C(F)(F)F)cc(C(F)(F)F)c1)N(c1ccc(F)cc1)C1CCNCC1,Ki,[30],200 nM
same,Ki,[15],251 nM
CC(C)C[C@H](CC(=O)NO)C(=O)N[C@@H](Cc1ccccc1)C(=O)N[C@@H](C)C=O,IC50,[31],25 nM
COc1cc(C(=O)N2CC[C@@](CCN3CCC(C(N)=O)(c4ccccc4)CC3)(c3ccc(Cl)c(Cl)c3)C2)cc(OC)c1OC,IC50,[22],8.4 nM
same,IC50,[23],3.1 nM
COc1cc(C(=O)N2CC[C@](CCN3CCC(C(N)=O)(c4ccccc4)CC3)(c3ccc(Cl)c(Cl)c3)C2)cc(OC)c1OC,IC50,[24],> 10000 nM
same,IC50,[13],3 nM
O=C(O)CCNC(=O)C(CS)Cc1ccccc1 (configuration not stated),IC50,[20],9.4 nM
same,IC50,[21],32000 nM
CN[C@@H](CCOc1ccc([N+](=O)[O-])cc1)c1ccc(OC(=O)N(C)C)cc1,IC50,[32],101 nM
same,IC50,[3],42 nM
C[C@@H]1CN(c2cccc3cc(F)ccc23)CCN1CCC1OCCc2c1sc(C(N)=O)c2Cl (some centres not stated),Ki,[4],291 nM
same,Ki,[5],140 nM
same,Ki,[33],> 1000 nM
same,Ki,[34],45 nM
same,IC50,[3],2.1 nM
O=C(N[C@H](CN1CCC(OC2c3ccccc3CCc3ccccc32)CC1)C(=O)O)OCc1ccccc1,Kd,[35],410 nM
same,IC50,[29],1550 nM
